PubChem BioAssay AID294 (DTP/NCI, 2004)
Values joined by “and” are separate entries in the source; they are usually repeats but may differ in a detail not shown here. Identical values can stand only once.

Test system: MX-1 breast xenograft, nude mice, tumor weight change
Assay: NCI In Vivo Anticancer Drug Screen. Data for tumor model Human Mammary Carcinoma MX-1 Xenograft (subcutaneous) in NU/NU Swiss (nude) mice
Conditions: endpoint: optimum tumor weight change, higher = larger tumour
Procedure: The antitumor activity of compounds was measured in mice bearing transplantable tumors. Survival or tumor size were measured and the results are expressed as the measurement made in the treated group (T) divided by the measurement made in the vehicle treated control group (C). The tumor model used in this assay is Human Mammary Carcinoma MX-1 Xenograft (subcutaneous) in NU/NU Swiss (nude) mice

[1] = dose: 50.0 mg/kg/injection, schedule: Q04DX003 (ip), vehicle: saline
[2] = dose: 100.0 mg/kg/injection, schedule: Q04DX003 (ip), vehicle: saline
[3] = dose: 200.0 mg/kg/injection, schedule: Q04DX003 (ip), vehicle: saline

C[n+]1c(-c2cccc3ccccc23)c2cc(N)ccc2c2ccccc21 was tested, and the T/C (dose: 3.0 mg/kg/injection, schedule: Q04DX003 (ip), vehicle: saline) was 76 % of control and 82 % of control and the T/C (dose: 6.0 mg/kg/injection, schedule: Q04DX003 (ip), vehicle: saline) was 78 % of control.
With Cc1c(N)nc(C(CC(N)=O)NCC(N)C(N)=O)nc1C(=O)NC(C(=O)NC(C)C(O)C(C)C(=O)NC(C(=O)NCCc1nc(-c2nc(C(=O)NCCCNC(C)c3ccccc3)cs2)cs1)C(C)O)C(OC1OC(CO)C(O)C(O)C1OC1OC(CO)C(O)C(OC(N)=O)C1O)c1cnc[nH]1 (stereo unspecified) the T/C (dose: 7.5 mg/kg/injection, schedule: Q04DX003 (ip), vehicle: saline) was 43 % of control and 50 % of control, the T/C (dose: 30.0 mg/kg/injection, schedule: Q04DX003 (ip), vehicle: saline) was 18 % of control and 22 % of control and the T/C (dose: 60.0 mg/kg/injection, schedule: Q04DX003 (ip), vehicle: saline) was 17 % of control.
In the case of N=C(N)Sc1ccccn1, the T/C [1] is reported as 106 % of control, the T/C [2] is reported as 77 % of control and the T/C [3] is reported as 60 % of control.
N[C@H](C(=O)O)[C@@H]1CC(Cl)=NO1 was tested, and the T/C (dose: 25.0 mg/kg/injection, schedule: Q04DX003 (ip), vehicle: saline) was 19 % of control, the T/C [1] was 12 % of control and the T/C [2] was 5 % of control. For the same molecule, the T/C [3] was 1 % of control.
For COC1C(O)CC(OC2CC(OC3CC(O[C@@H]4C(=O)c5c(cc6cc(OC7CC(OC8CC(O)C(O)C(C)O8)C(O)C(C)O7)c(C)c(O)c6c5O)C[C@H]4[C@H](OC)C(=O)[C@@H](O)[C@@H](C)O)OC(C)C3O)OC(C)C2O)OC1C (stereo partly specified), the T/C (dose: 0.75 mg/kg/injection, schedule: Q04DX003 (ip), vehicle: saline) was 90 % of control and 95 % of control.
C[C@]12CC[C@@H]3c4ccc(OC(=O)Cc5ccc(N(CCCl)CCCl)cc5)cc4CC[C@H]3[C@@H]1CC[C@@H]2OC(=O)Cc1ccc(N(CCCl)CCCl)cc1 was tested, and the T/C (dose: 800.0 mg/kg/injection, schedule: Q04DX003 (ip), vehicle: saline with Tween-80) was 50 % of control.
In the case of O=C(NO)c1ccccc1, the T/C (dose: 25.0 mg/kg/injection, schedule: Q01DX003 (ip), vehicle: saline) is reported as 82 % of control, the T/C (dose: 50.0 mg/kg/injection, schedule: Q01DX003 (ip), vehicle: saline) is reported as 108 % of control and the T/C (dose: 100.0 mg/kg/injection, schedule: Q01DX003 (ip), vehicle: saline) is reported as 42 % of control.
With CSc1cc(=O)n2c3ccccc3c3ccnc1c32 the T/C (dose: 10.0 mg/kg/injection, schedule: Q04DX003 (ip), vehicle: saline with Tween-80) was 61 % of control, the T/C (dose: 20.0 mg/kg/injection, schedule: Q04DX003 (ip), vehicle: saline with Tween-80) was 50 % of control and 67 % of control and the T/C (dose: 80.0 mg/kg/injection, schedule: Q04DX003 (ip), vehicle: saline with Tween-80) was 27 % of control.
In the case of N/C(=N\O)c1cn(C2OC(CO)C(O)C2O)c2ncnc(N)c12 (stereo unspecified), the T/C (dose: 5.0 mg/kg/injection, schedule: Q04DX003 (ip), vehicle: Klucel (hydroxypropylcellulose) (HPC)) is reported as 109 % of control, the T/C (dose: 10.0 mg/kg/injection, schedule: Q04DX003 (ip), vehicle: Klucel (hydroxypropylcellulose) (HPC)) is reported as 80 % of control and the T/C (dose: 20.0 mg/kg/injection, schedule: Q04DX003 (ip), vehicle: Klucel (hydroxypropylcellulose) (HPC)) is reported as 82 % of control.
With Cc1c(N)nc([C@H](CC(N)=O)NC[C@H](N)C(N)=O)nc1C(=O)N[C@H](C(=O)N[C@H](C)[C@@H](O)CC(=O)N[C@H](C(=O)NC(O[C@@H]1O[C@@H](C)[C@@H](N)[C@@H](O)[C@H]1O)C(O)c1nc(-c2nc(C(=O)NCCCCN)cs2)cs1)[C@@H](C)O)[C@@H](O[C@@H]1O[C@@H](CO)[C@@H](O)[C@H](O)[C@@H]1O[C@H]1O[C@H](CO)[C@@H](O)[C@H](OC(N)=O)[C@@H]1O)c1c[nH]cn1 (stereo partly specified) the T/C (dose: 2.0 mg/kg/injection, schedule: Q04DX003 (ip), vehicle: saline) was 84 % of control, the T/C (dose: 4.0 mg/kg/injection, schedule: Q04DX003 (ip), vehicle: saline) was 47 % of control and the T/C (dose: 8.0 mg/kg/injection, schedule: Q04DX003 (ip), vehicle: saline) was 42 % of control. The T/C (dose: 32.0 mg/kg/injection, schedule: Q04DX003 (ip), vehicle: saline) was 7 % of control and 21 % of control and 29 % of control and the T/C (dose: 64.0 mg/kg/injection, schedule: Q04DX003 (ip), vehicle: saline) was 32 % of control.
For CC(=O)OCC1OC(n2cc(CBr)nn2)C(OC(C)=O)C(OC(C)=O)C1OC(C)=O (stereo unspecified), the T/C (dose: 25.0 mg/kg/injection, schedule: Q04DX003 (ip), vehicle: saline with Tween-80) was 119 % of control, the T/C (dose: 50.0 mg/kg/injection, schedule: Q04DX003 (ip), vehicle: saline with Tween-80) was 150 % of control and the T/C (dose: 100.0 mg/kg/injection, schedule: Q04DX003 (ip), vehicle: saline with Tween-80) was 57 % of control.
